The source of these data is PubChem BioAssay (NCI).

Values joined by “and” are separate entries in the source; they are usually repeats but may differ in a detail not shown here. Equal values may be shown once.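 Interpolation was linear, between the two tested concentrations surrounding the appropriate level; five concentrations were tested over 48 hours in 96-well plates. The concentration for 50% growth inhibition is given as GI50. At the TGI there is no net growth.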

Some test systems named below: SN12C renal; NCI-H23 lung; SR leukemia; SNB-75 CNS; UO-31 renal; HT29 colon; OVCAR-5 ovarian; 786-0 renal; MDA-N; PC-3 prostate; T-47D breast.
Holding throughout (assay): NCI tumour cell line growth inhibition, 48 h

Take `Cc1ccc(Sc2ccccc2[N+](=O)[O-])cc1`: the TGI in the assay with SN12C renal was more than 100 µM; in the assay on NCI-H23 lung, 78.2 µM; with SR leukemia, more than 100 µM; with SNB-75 CNS, 40.6 µM; with UO-31 renal it was more than 100 µM; in the assay on HT29 colon, 62.2 µM. In addition, the TGI with OVCAR-5 ovarian was more than 100 µM.

Turning to `Cc1cccc2c1c1ccc3c(c1n2C)C(=O)C=CC3=O`, the TGI in the assay on SN12C renal stood at 12.8 µM; in the assay with NCI-H23 lung, 29.3 µM; in the assay on SR leukemia it was 4.45 µM; with SNB-75 CNS it was 42.8 µM; in the assay on UO-31 renal, 9.83 µM; in the assay with HT29 colon, 14 µM. Besides, the TGI with 786-0 renal was 3.64 µM; in the assay with OVCAR-5 ovarian, 29.5 µM.

Consider `COC(=O)C(=O)C(C(=O)C(=O)Nc1cccc([N+](=O)[O-])c1)c1nc2ccc(Cl)cc2[nH]c1=O` (stereo not given), for which the TGI with MDA-N, in the assay with SN12C renal, in the assay on PC-3 prostate, with NCI-H23 lung, in the assay on SNB-75 CNS and with UO-31 renal was more than 100 µM each time. For the same molecule, the TGI in the assay with HT29 colon, in the assay on 786-0 renal and in the assay with OVCAR-5 ovarian was more than 100 µM throughout.

Consider `O=C1Nc2cc([N+](=O)[O-])c(Br)cc2C1=O`, for which the TGI in the assay on SN12C renal stood at 32.7 µM; in the assay with NCI-H23 lung it was 31.9 µM; in the assay with SR leukemia it was 37.4 µM; in the assay with SNB-75 CNS, 52 µM; in the assay with UO-31 renal, 36.2 µM; in the assay on HT29 colon, 41.9 µM. The TGI with 786-0 renal amounted to 35.8 µM.

Consider `COc1cc(C2C(Cl)C(=O)N2NC(=O)c2ccc(NC(C)=O)cc2)ccc1O` (stereo not given), for which the TGI in the assay on SN12C renal, with NCI-H23 lung, with UO-31 renal, with HT29 colon, in the assay on 786-0 renal and in the assay with OVCAR-5 ovarian was more than 100 µM each time.

`Cc1ccc(-c2nnc(CCCCCCCCc3nnc(-c4ccc(C)cc4O)n3N)n2N)c(O)c1`: the TGI with MDA-N, in the assay on SN12C renal, with NCI-H23 lung, in the assay with SR leukemia, in the assay on SNB-75 CNS and in the assay with UO-31 renal was more than 100 µM throughout. Also, the TGI with 786-0 renal, in the assay on OVCAR-5 ovarian and in the assay on T-47D breast was more than 100 µM throughout.

For the molecule `CC(C)OP(=O)(OC(C)C)C1=NN(c2ccc([N+](=O)[O-])cc2)C(P(=O)(OC(C)C)OC(C)C)=NN1c1ccc([N+](=O)[O-])cc1`, the TGI in the assay with SN12C renal, in the assay with NCI-H23 lung, in the assay on SR leukemia, with UO-31 renal, with HT29 colon and with OVCAR-5 ovarian was more than 100 µM in each case.

Consider `Nc1cccc(S(=O)(=O)Nc2nnc(S(N)(=O)=O)s2)c1`, for which the TGI in the assay on PC-3 prostate, with NCI-H23 lung, with SR leukemia, in the assay with SNB-75 CNS, in the assay on UO-31 renal and with HT29 colon was more than 100 µM in each case. Besides, the TGI in the assay on 786-0 renal, in the assay on OVCAR-5 ovarian and in the assay with T-47D breast was more than 100 µM each time.

As for `CCOC(=O)c1cc2c(OCc3ccccc3)c(OC)cc3c2c(n1)N(c1ccc(OC)cc1)C(C)C3` (stereo not given), the TGI in the assay on SN12C renal, with NCI-H23 lung, in the assay on SR leukemia, in the assay on SNB-75 CNS, in the assay on UO-31 renal and in the assay with 786-0 renal was more than 50 µM throughout. Besides, the TGI in the assay with OVCAR-5 ovarian was more than 50 µM.

In the case of `Cc1cc(NC(=O)C2C3C=CC(O3)C2C(=O)O)no1` (stereo not given), the TGI with SN12C renal is more than 100 µM; with NCI-H23 lung, more than 100 µM; with SR leukemia, 42.8 µM; with SNB-75 CNS, more than 100 µM; with UO-31 renal, more than 100 µM; in the assay with HT29 colon, more than 100 µM. The TGI with 786-0 renal is 34.9 µM; with OVCAR-5 ovarian, more than 100 µM.

Regarding `CC(=O)NC(CCCCN)C(=O)NCc1ccccc1` (stereo not given), the TGI in the assay with SN12C renal, in the assay with NCI-H23 lung, with SNB-75 CNS, in the assay on UO-31 renal, in the assay with HT29 colon and in the assay with 786-0 renal was more than 100 µM throughout. The TGI with OVCAR-5 ovarian is more than 100 µM.

As to `CCOC(=O)C(C)Sc1nnc(COc2ccccc2OC)n1-c1ccccc1` (stereo not given), the TGI with SN12C renal, in the assay with NCI-H23 lung, in the assay on SNB-75 CNS, in the assay on UO-31 renal, in the assay on HT29 colon and with 786-0 renal was more than 100 µM in each case. Further, the TGI with OVCAR-5 ovarian is more than 100 µM.

For `Cc1cn(C2CC(CCCO)C(CO)O2)c(=O)[nH]c1=O` (stereo not given), the TGI in the assay on SN12C renal, with NCI-H23 lung, in the assay on SR leukemia, in the assay on SNB-75 CNS, in the assay on UO-31 renal and in the assay with HT29 colon was more than 100 µM throughout. In addition, the TGI in the assay on 786-0 renal and in the assay with OVCAR-5 ovarian was more than 100 µM each time. Also, in the assay on SNB-75 CNS, the GI50 was > 100 µM and 30.5 µM.

In the case of `CC(=O)OC12c3ccccc3C(c3ccccc31)C1C(=O)N(c3ccccn3)C(=O)C12` (stereo not given), the TGI is more than 100 µM in the assay on SN12C renal; more than 100 µM in the assay with PC-3 prostate; more than 100 µM with NCI-H23 lung; more than 100 µM in the assay on SNB-75 CNS; 57.9 µM in the assay on UO-31 renal; more than 100 µM with HT29 colon. Further, the TGI with 786-0 renal, in the assay with OVCAR-5 ovarian and in the assay on T-47D breast was more than 100 µM throughout.

Consider `CCOC(=O)CCC1(C(=O)OCC)CCCC1=O` (stereo not given), for which the TGI in the assay with SN12C renal is more than 100 µM; in the assay on NCI-H23 lung it was more than 100 µM; in the assay with SR leukemia, 60.4 µM; with SNB-75 CNS it was more than 100 µM; in the assay on UO-31 renal, more than 100 µM; with HT29 colon it was more than 100 µM. Also, the TGI in the assay on 786-0 renal and with OVCAR-5 ovarian was more than 100 µM each time.

Turning to `C=C(C)C1CC/C(C)=C/CC[C@]2(C)O[C@@H]2CCC2=CC1OC2=O` (stereo not given in full), the GI50 in the assay with SN12C renal was 78.8 µM; with PC-3 prostate, 48.9 µM; in the assay on NCI-H23 lung it was 36.8 µM; in the assay on SR leukemia it was 19 µM; with UO-31 renal, 12.7 µM; with OVCAR-5 ovarian, 0.635 µM. Further, the GI50 in the assay with T-47D breast was 18.5 µM. Besides, the TGI with SN12C renal was more than 100 µM; in the assay with PC-3 prostate, more than 100 µM; in the assay on NCI-H23 lung it was more than 100 µM; in the assay with SR leukemia, 51.5 µM; with UO-31 renal, 25.3 µM; in the assay with OVCAR-5 ovarian it was more than 100 µM. The molecule further came in with a TGI with T-47D breast of more than 100 µM.
